{"source": "patent US7279497B2", "about": "“Benzopyran derivatives substituted with secondary amines including imidazole, their preparation and pharmaceutical compositions containing them” (Korea Research Institute of Chemical Technology, priority 2002, dated 2007)", "key": {"[1]": {"test_system": "blood vessel formation in Matrigel plugs", "test": "In vivo mouse matrigel plug assay (hemoglobin content of plug)", "design": "species or system C57BL/6 mice", "method": "Antiangiogenic activities in vivo of the compounds of the formula 1 were determined by mouse matrigel plug assay.\nThe mixture of Matrigel, heparin (30 units), and bFGF (25 ng) were injected subcutaneously into C57BL/6 mice. The test compounds were injected subcutaneously at 2.2 mg/mL with matrigel, or administrated orally at 2 mg/day (twice a day, each 1 mg) during 4 days (total 8 mg/mouse). After 4-7 days, the skin of the mouse was pulled back, and matrigel plug was excised. The hemoglobin contents inside the Matrigel plugs were measured using the Drabkin method and Drabkin reagent (kit 525, Sigma) for the quantitation of blood vessel formation."}, "[2]": {"test_system": "Chick chorioallantoic membrane (CAM)", "test": "CAM (chorioallantoic membrane) assay", "format": "in vivo", "method": "Chick chorioallantoic membrane (CAM) assays were performed to measure the inhibitory effects on angiogenesis in vivo of the compounds of the formula 1.\nFertilized chick eggs were incubated under constant humidified (90%) egg breeder at 37° C. On the third day of incubation, about 2 mL of egg albumin was aspirated by an 18-gauge hypodermic needle through the small hole drilled at the narrow end of the eggs, to detach the developing CAM from the shell. And the shell covering the air sac was punched out and removed by forcep, and the shell membrane on the floor of the air sac was peeled away. After more incubation of two more days, sample-loaded thermanox coverslips were air-dried, and applied to the CAM surface to test the angiogenic inhibition by the test compounds. Three days later, 1 to 2 mL of 10% fat emulsion (Intralipose) was injected into the chorioallantoic and observed avascular zone under a dissecting microscope. The negative control was implanted only thermanox coverslip, while the positive control was treated with retinoic acid (1 μg/egg). […] Independent experiment was repeated three times and at least more than 20 eggs in each experiment were used."}, "isolated rat aorta": {"test_system": "isolated rat aorta", "test": "Vasorelaxation effects on isolated blood vessels (methoxamine induced vasoconstriction)", "method": "The following experiment was conducted to examine whether the compounds of the formula 1 have vasorelaxation effects.\nMale Sprague-Dawly rats (350-450 g, obtained from the Experimental Animal Team of the Korea Research Institute of Chemical Technology) were knocked unconscious by hitting the occipital region, sacrificed by cervical dislocation, and underwent thoracotomy. After being quickly removed, the thoracic aorta was deprived of the adipose tissue and cut into aortic rings of 3 mm width. The aorta was lightly rubbed with a modified Krebs Henseleit buffer (Physiological Salt Solution, PSS) soaked cotton club to remove the inner epithelial layer therefrom. While being suspended in an organ bath containing a physiological buffer, the vascular tissue was allowed to equilibrate under a resting tension of 2 g and then, stand for 1 hour at 37° C. for stabilization with a supply of a carbogen consisting of 95% O2-5% CO2.\nThereafter, the vascular tissue was constricted with 10^−5 M phenylephrine and washed several times with PSS and this procedure was repeated again to ensure the stable reactivity of vascular smooth muscle to repetitive constriction/dilatation.\nIn addition, 3×10^−6 M methoxamine was used to induce an intensive constriction in the vascular smooth muscle. When the vasoconstriction induced by the methoxamine reached and maintained a maximum, test compounds and controls were cumulatively added to the organ baths in concentrations of 1, 3, 10 and 30 μM so as to induce vasodilatation. Cromakalim, BMS-180448, and BMS-191095 were used as the controls.\nFollowing the addition of test compounds, the change in the maximal constriction induced by methoxamine was calculated to plot a concentration-relaxation response curve. Through a linear regression analysis, IC50, the drug concentration at which the vascular tissue is 50% dilated, was obtained for each compound."}, "ischemic hearts": {"test_system": "ischemic hearts", "test": "Cardioprotective activity in ischemic heart model of anesthetized rats", "conditions": "Rat in vivo, 0.3 mg/kg i.v.", "method": "In order to determine whether the compounds of formula 1 are protective for ischemic hearts, experiments determining the anti-ischemic effects of the compounds on rats were conducted as follows. Male rats (350-450 g, obtained from the Experimental Animal Team of the Korea Research Institute of Chemical Technology) were anesthetized by the intraperitoneal injection of pentobarbital at a dose of 75 mg/kg. After trachetomy, the rats were rendered to respire artificially at a rate of 60/min with a stroke volume of 10 ml/kg. Cannulars were inserted into the fermoral vein and the fermoral artery and used for drug administration and blood pressure measurement, respectively. In the ischemic myocardial injury models, the body temperature has an important influence on the results. To avoid the change in the body temperature, a body temperature measuring probe was inserted into the rectum of each rat and the body temperature was constantly kept at 37° C. with the aid of a homeothermic blanket control unit. Afterwards, during testing, a continuous measurement was made of the mean arterial blood pressures and heart rates from the rats. For the measurement of the blood pressure, a pressure transducer (Statham P23XL, Grass Ins., MA, U.S.A.) was used. The heart rate was measured by a tachometer (ECG/RATE Coupler, Hugo Sachs Electronic, German) identified as Biotachometer. In addition, all of the changes occurring were continuously recorded through the Gould 2000 chart recorder ([…] Linearcorder W R 3310, Hugo Sachs Electronic). The left coronary artery was occluded according to the Selye H. method as follows. The rats underwent a left thoracotomy operation for partial opening of the chest and the right-side chest was pressurized by the middle finger of the left hand to push the heart out. Immediately after the left anterior descending coronary artery hereinafter referred to as (LAD) was carefully stitched using a suture needle with 5-0 silk ligature, the heart was then repositioned in the thoracic cavity while both ends of the ligature were situated outside. The opposite ligature ends were passed through a PE tube (PE100, 2.5 cm) and allowed to stand loose for 20 min for stabilization. Via the cannula inserted into the femoral vein, vehicles or drugs were administered into the rats which were rendered to stand for 30 min in order to sufficiently elicit the efficacies of the drugs. […] From the images input into the computer, the area of the normal blood stream tissue region which appeared blue in a computer monitor and the area which appeared colorless were measured. The percentage of the colorless area to the total area of each slice was calculated and multiplied by the weight of each slice to determine the area at risk (AAR) of each slice. […]"}, "SPF SD rats": {"test_system": "SPF SD rats", "conditions": "rat, in vivo, po"}}}
{"smiles": "COC(OC)[C@@]1(C)Oc2ccc([N+](=O)[O-])cc2[C@@H](N(Cc2ncc[nH]2)c2ccc(Cl)cc2)[C@@H]1O", "note": "[Example 1, (2S,3S,4R)-3,4-dihydro-2-dimethoxymethyl-3-hydroxy-2-methyl-6-nitro-4-[N-(4-chlorophenyl)-N-(1H-imidazol-2-ylmethyl)amino]-2H-1-benzopyran]", "values": [{"measurement": "% Inhibition (hemoglobin quantity)", "setting": "[1]; S. C, 2.2 mg/mL with matrigel", "result": 79, "unit": "%"}, {"measurement": "% Inhibition (hemoglobin quantity)", "setting": "[1]; oral, 2 mg/day during 4 days", "result": 94, "unit": "%"}, {"measurement": "% Inhibition (positive eggs)", "setting": "[2]; 0.5 μM/egg", "result": 62, "unit": "%"}, {"measurement": "% Inhibition (positive eggs)", "setting": "[2]; 1.5 μg/egg", "result": 84, "unit": "%"}, {"measurement": "IC50", "setting": "isolated rat aorta; rat aorta constricted with methoxamine (3 μM)", "result": 9.83, "unit": "µM"}, {"measurement": "vasorelaxant potency lower than BMS-180448", "setting": "isolated rat aorta; ratio of IC50", "result": 7, "unit": "times"}, {"measurement": "AAR/LV (%)", "setting": "ischemic hearts", "result": 33.4, "unit": "%"}, {"measurement": "IZ/AAR (%)", "setting": "ischemic hearts", "result": 41.2, "unit": "%"}, {"measurement": "clinical symptoms, body weight and mortality", "setting": "SPF SD rats", "result": "no significant changes"}]}
